Results reported in patent publication US11186614B2, “Anti-HIV peptides” (priority 2016, dated 2021).
Entries after “also recorded” stand apart in the source; their conditions may differ.

Tests used:
[1] = test system: U1hpII; assay: SPR binding to U1hpII; conditions: FIG. 4D
Text: FIG. 4A-F depict the TBP evolution screen.

[2] = test system: HIV TAR; assay: ELISA RNA binding of SUMO fusion proteins, HIV TAR; parameters: species or system HIV-1
Text: (§1) FIG. 6A-B depicts SUMO-(GGS)3-β2-β3 and graphs of ELISA data. (A) Diagram of the SUMO-(GGS)3-β2-β3 hairpin loop of TBP6.7 fused to SUMO.
(§2) Protein engineering was used to test whether an isolated β2-β3 hairpin of TBP6.7 (FIG. 2) retains TAR binding. Specifically, a fusion protein was created comprising the TBP6.7 β2-β3 hairpin (FIG. 6A) linked by flexible, soluble spacer (GGS)3 to SUMO (Small Ubiquitin-like Modifier), a 12 kDa protein that expresses well in E. coli and stabilizes a variety of structurally diverse fusion proteins.^114 The affinity for TAR was then measured by ELISA (FIG. 6B).
(§3) To test for TAR binding by the isolated β2-β3 loop sequence, we first fused this short peptide to SUMO (Small Ubiquitin-like Modifier). […] Arg-to-Ala mutants were then tested.
(§4) SUMO is 12 kDa protein that expresses well in E. coli and stabilizes a variety of diverse fusion proteins. A β2-β3 loop peptide comprising the sequence L^41-to-F^59—or mutants thereof—was fused to a flexible GGS linker at the SUMO C-terminus, and RNA binding was measured by ELISA. […] Stapling was accomplished by inserting nucleophiles using L44C and F56C mutations. Following treatment with a reducing agent (DTT), chemical cyclization was achieved by SNAr conjugation using polyfluorinated biarylsulfoxide; β2-β3 loop peptides with R-to-A mutations were prepared similarly. […]

[3] = test system: U1hpII; assay: ELISA RNA binding of SUMO fusion proteins, U1hpII
Text: as §1, §2, §3, §4

[4] = test system: BIV TAR; assay: ELISA RNA binding of SUMO fusion proteins, BIV TAR; parameters: species or system Bovine immunodeficiency virus
Text: as §1, §2, §3, §4

[5] = test system: TAR; conditions: FIG. 4D
Text: (A) Yeast display platform to identify U1A-derived proteins that bind TAR. […] (C) ELISA data depicting binding between evolved proteins and TAR. […] (E) Sequences of TAR mutants used to elucidate TBP6.6 and TBP 6.7 binding selectivity. (F) ELISA data showing relative affinities between TBP6.6 or TBP6.7.

| Molecule | SPR recognition of U1hpII [1] | ELISA binding to HIV TAR [2] | ELISA binding to U1hpII [3] | ELISA binding to BIV TAR [4] | SPR recognition of TAR [5] |
| --- | --- | --- | --- | --- | --- |
| U1A: parental RRM protein, starting protein whose native target is U1hpII | tightly binds U1hpII | did not interact with BIV or HIV TAR | highest relative level of binding; also recorded: binds U1hpII | did not interact with BIV or HIV TAR | does not bind TAR |
| SUMO: Small Ubiquitin-like Modifier, a 12 kDa protein, fusion partner control (protein, UniProt Q12306 2-98, looked up) Ubiquitin-like protein SMT3: SDSEVNQEAKPEVKPEVKPETHINLKVSDGSSEIFFKIKKTTPLRRLMEAFAKRQGKEMDSLRFLYDGIRIQADQTPEDLDMEDNDIIEAHREQIGG | – | does not have appreciable TAR binding; also recorded: no appreciable RNA binding; also recorded: does not bind | no appreciable RNA binding; also recorded: does not bind | no appreciable RNA binding; also recorded: does not bind | – |
